Data on two molecules can be found in patent publication US20250381277A1, “COMPOSITIONS AND METHODS FOR TREATMENT OF NEUROLOGICAL DISORDERS” (Dana-Farber Cancer Institute, Inc., priority 2022, published 2025).

Entries after “also recorded” stand apart in the source; their conditions may differ.

Common to all, as to assay type: cell-based, mouse
One experiment has as its target CD11c^+αVβ3^+ microglia. Kind of experiment: Ki-67 and TNF-α expression in microglia of 9-mo old WT mice incubated with rmOPN or αVβ3 inhibitor (flow cytometry). The conditions noted are these: 9-mo old WT mice microglia, 24 h with or without 12.5 μg/ml rmOPN or 10 μM cilengitide. As for the experimental part:
(A) Microglia isolated from P5 and 9-mo old WT, OPN-KO and OPN-i-KI mice were incubated×1 h with […] pHrodo Green-labeled synaptosomes per 1×10^5 cells followed by flow cytometry analysis of CD11c^+ microglial engulfment of synaptosomes. CD11c^+ microglia from P5, but not 9-mo old WT mice, were highly phagocytic for engulfing synaptosomes in vitro. […] (C) CD11c^+ microglia expressed high levels of proliferation marker Ki-67 early in development (P5). OPN-s, but not OPN-i deficiency decreased Ki-67 expression in CD11c^+ microglia (n=3). *p<0.05 by one-way ANOVA with Bonferroni's multiple comparisons test. […] (E) Microglia isolated from 9-mo old WT mice were incubated×24 h with or without 12.5 μg/ml recombinant mouse OPN (rmOPN) or 10 μM αVβ3 inhibitor (cilengitide) followed by flow cytometry analysis of proliferation marker Ki-67. […] (G) Microglia isolated from 9-mo old WT mice were incubated×24 h with or without 12.5 μg/ml recombinant mouse OPN (rmOPN) or 10 μM αVβ3 inhibitor (cilengitide) followed by flow cytometry analysis of TNF-α expression. […] Data are shown as mean±s.e.m.
Microglial staining for flow cytometry analysis. Microglia were stained with Ghost dye Violet 510 (1:1000, Tonbo Biosciences) to exclude dead cells followed by Fc receptor blocking using CD16/CD32 antibody (1:100, BD Biosciences) to avoid non-specific staining. Appropriate microglial surface markers were used for staining, including anti-CD11b (1:100 Biolegend), anti-CD45 (1:100 Biolegend), anti-CD11c (1:50 Biolegend), anti-CD36 (1:100, Biolegend), anti-CD209a (1:100, Biolegend), anti-αV integrin (1:50, Biolegend), anti-β3 integrin (1:50, Biolegend), anti-CD86 (1:100, Biolegend), and anti-MHC II (1:100, Biolegend), followed by fixation and permeabilization for subsequent intracellular staining with anti-OPN (1:10, R&D Systems), anti-TNF-α (1:50, Biolegend) and intranuclear staining with anti-Ki-67 (1:100, Biolegend).
(In flow cytometry, cells or beads pass a laser one at a time.)

Experiment [1] relates to CD11c^+ microglia of 9-mo old OPN-KO.5XFAD mice. Kind of experiment: In vitro microglia assay: impact of OPN-αVβ3 interaction on CD11c^+ microglial TNF-α production. The conditions noted are these: 9-mo old OPN-KO.5XFAD microglia, Cilengitide 10 μM 1 h pre-incubation, then rmOPN 12.5 pg/ml, 24 h. How it is done:
(a) Representative flow cytometry plots and quantification of TREM2 mean fluorescence intensity (MFI) in CD11c^+ OPN^+ and CD11c^+ OPN^− microglial subsets of 9-mo old 5XFAD mice. […] Statistical analysis was performed by two-tailed Student's t test. (b) Representative flow cytometry plots of TNF-α and TREM2 expression in CD11c^− OPN^− microglial subset of 9-mo old 5XFAD mice. CD11c^− OPN^− microglia expressed low level of TNF-α and negligible level of TREM2. The plots were representative results from 3 independent experiments. (c) Microglial expression of canonical OPN receptors in 5XFAD mice at different stages of disease. […] The histogram of CD44 and the contour plot of αVβ3 and αVβ5 were the representative results from 3 independent experiments. (d) The impact of OPN-αVβ3 interaction on CD11c^+ microglial production of TNF-α. […] (e) Representative flow cytometry plots and quantification of TREM2 MFI in CD11c^+ microglia of 9-mo old 5XFAD and OPN-KO.5XFAD mice (n=3). […] Two-tailed Student's t test was performed for statistical analysis.
To test the impact of OPN-αVβ3 interaction on CD11c^+ microglial pro-inflammatory response, microglia were enriched by anti-CD11b microbeads (purity >95%, Miltenyi) from 9-mo old OPN-KO.5XFAD mice and were seeded into 12-well plates at 3×10^5 cells/well in conventional microglia culture medium (DMEM-F12 with 10% fetal bovine serum+1% penicillin/streptomycin+10 ng/ml recombinant mouse M-CSF). Microglia were pre-incubated with a selective αVβ3 inhibitor, Cilengitide (10 μM) for 1 h followed by the addition of 12.5 pg/ml recombinant mouse OPN (rmOPN) and cultured for 24 h before analysis of CD11c^+ microglial expression of TNF-α by flow cytometry.

A further experiment deals with IL-1β. The experiment in a line: Microglial inflammasome activation: IL-1β production (ELISA of culture medium). The conditions noted are these: LPS 100 ng/ml 3 h + Aβ1-42 fibrils 10 μM overnight; microglia from 9-mo 5XFAD and OPN-KO.5XFAD mice; rmOPN 12.5 pg/ml, Cilengitide 10 μM. As for the experimental part:
(§1) Intracellular Caspase-1 activity was measured by bioluminescent assay of microglia from 9-month-old 5XFAD mice. Detection of the specificity of Caspase-1 activity was confirmed by a selective Caspase-1 inhibitor (Ac-YVAD-CHO (SEQ ID NO: 13), 1 μM). Bar plots are representative results from three independent experiments. […] Activation of Caspase-1 and IL1β by provision of rmOPN was blocked following provision of αVβ3 inhibitor to microglia from 9-mo old 5XFAD and OPN-KO.5XFAD mice (n=3). ****p<0.0001, ***p<0.001, **p<0.01, *p<0.05, ns: not significant by one-way ANOVA with Bonferroni's multiple comparisons test. U.D. undetectable.
(§2) In these studies, microglia isolated from 9-mo old 5XFAD and OPN-KO.5XFAD mice were seeded into 96-well plates at 6×10^4 cells/well in conventional microglia culture medium (DMEM-F12 with 10% fetal bovine serum+1% penicillin/streptomycin+10 ng/ml recombinant mouse M-CSF). […] Microglial intracellular Caspase-1 activity was analyzed by the bioluminescent Caspase-Glo® 1 Inflammasome Assay Kit (Promega) per the manufacturer's instruction. […] Culture medium was collected for quantitative determination of microglial […] DuoSet ELISA kit (R&D Systems) according to the manufacturer's instructions.

A further experiment concerns Caspase-1. Kind of experiment: Microglial inflammasome activation: intracellular Caspase-1 activity (bioluminescent Caspase-Glo 1 assay). The conditions noted are these: LPS 100 ng/ml 3 h + Aβ1-42 fibrils 10 μM overnight; microglia from 9-mo 5XFAD and OPN-KO.5XFAD mice; rmOPN 12.5 pg/ml, Cilengitide 10 μM. How it is done:
as §1, §2

`CC(C)[C@H]1C(=O)N[C@@H](CCCN=C(N)N)C(=O)NCC(=O)N[C@@H](CC(=O)O)C(=O)N[C@H](Cc2ccccc2)C(=O)N1C` [Cilengitide]: on CD11c^+αVβ3^+ microglia, the “Ki-67 expression in CD11c^+αVβ3^+ microglia” value was “markedly reduced; also recorded: fully abrogated” and the “TNF-α expression in CD11c^+αVβ3^+ microglia” value is listed as “fully abolished”. In experiment [1], the “TNF-α production by CD11c^+ microglia” value is listed as “abolished”. For the same molecule, in experiment [1] (listed as αVβ3 inhibitor), the “TNF-α production by CD11c^+ microglia” value is “fully abrogated”. Besides, the “microglial IL-1β production” value in the experiment on IL-1β is on record as “blocked”. The “microglial intracellular Caspase-1 activity” value in the experiment on Caspase-1 is “blocked”.
With “rmOPN: recombinant mouse OPN (osteopontin)”, at CD11c^+αVβ3^+ microglia, the “Ki-67 expression in CD11c^+αVβ3^+ microglia” value is given as “enhanced Ki-67 expression” and the “TNF-α expression in CD11c^+αVβ3^+ microglia” value is “Upregulation of TNF-α expression”. For the same molecule, in experiment [1], the “TNF-α production by CD11c^+ microglia” value is given as “induced TNF-α expression; also recorded: Upregulated TNF-α production”. The “microglial IL-1β production” value with IL-1β is given as “substantially increased; also recorded: Activation”. Moreover, the “microglial intracellular Caspase-1 activity” value with Caspase-1 was “substantially increased; also recorded: Activation”.
